Values quoted from earlier work as cited in US20080161385A1, “Composition Inhibiting Sex Hormone-Binding Globulin” (FUJI OIL COMPANY, LIMITED, priority 2004, published 2008).

Test system: SHBG
Details: cell test, literature

SMILES: O=c1c(-c2ccc(O)cc2)coc2cc(O)cc(O)c12 [genistein]
- Production of SHBG: stimulates production of SHBG
